pIC50: −log10 of the molar value.
System: Plasmodium berghei
Assay: Luciferase/luciferin-expressing antifolate-resistant parasites were used to infect a culture of HepG2 cells that were pre-incubated with compounds. Infected hepatocytes emit light due to the luciferase reaction. Assay results are presented as the percent inhibition of light emission compared to control. […]
Type: functional
Conditions: sporozoite; for pIC50: read-out: LUCIFERASE INFECTION ASSAY - IC50; for IC90: read-out: LUCIFERASE INFECTION ASSAY - IC90

SMILES	pIC50	IC90
N#CC(C#N)=NNc1ccc(-n2ccc(C(F)(F)F)n2)cc1	5.30	> 10.8 µM
Cc1ccc(-c2oc3ccccc3c(=O)c2O)cc1	< 4.88	> 13.1 µM
CC(C)S(=O)(=O)c1cnc(N2CCCCC2)nc1N	< 4.94	> 11.6 µM
COC(=O)c1cc(OC)c(OC)cc1NS(=O)(=O)c1ccc(OC)cc1	5.47	> 8.65 µM
O=C(N/N=C/c1c2ccccc2cc2ccccc12)c1ccc(Br)cc1	< 5.09	> 8.18 µM
Cc1csc(NC(=O)Nc2ccc(C(F)(F)F)cc2)c1	< 4.96	> 11 µM
O=C(CSc1ccccc1[N+](=O)[O-])NNC(=S)NC1CC2C=CC1C2 (stereo not given)	< 5.06	> 8.72 µM
N=C(NOC(=O)c1cnn(-c2ccccc2)c1C(F)(F)F)c1ccc(Cl)cc1	5.97	> 8.07 µM
CC(C)(C)S(=O)(=O)/C(C#N)=C/Nc1ccc(OC(F)(F)F)cc1	< 5.02	> 9.47 µM
COc1ccc(Sc2sc(C(C)=O)cc2[N+](=O)[O-])cc1	< 4.97	> 10.7 µM
CSc1sc(-c2ccn(S(=O)(=O)c3ccc(Cl)c(Cl)c3)n2)c2c1C(=O)CC(C)(C)C2	< 5.18	> 6.58 µM
COC(=O)c1sccc1Oc1ccc(C(F)(F)F)cc1NC(=S)Nc1cc(Cl)cc(Cl)c1	< 5.20	> 6.33 µM
COC(=O)c1scc(S(=O)(=O)Cc2ccco2)c1NN=C(C#N)C#N	< 5.06	> 8.72 µM
Cc1csc(-c2nc(-c3ccc(C(C)(C)C)cc3)no2)c1	< 4.95	> 11.1 µM
N#C/C(=C\Nc1ccc(OC(F)(F)F)cc1)S(=O)(=O)c1ccc(Cl)cc1	< 5.09	> 8.19 µM
CCC(=O)/C(=N/Nc1ccccc1)C(=O)OC	< 4.85	> 14.1 µM
Cc1ccc(N/C=C(\C#N)S(=O)(=O)c2ccc(Cl)cc2)cc1	< 5.00	> 9.92 µM
CSC(SC)=C(C#N)S(=O)(=O)C(C)C	< 4.88	> 13.1 µM
CCO/C=N\C1=C(C#N)C(c2ccc(F)cc2)c2ccc3ccccc3c2O1 (stereo not given)	< 5.05	> 8.86 µM
CSc1c(C#N)c(-c2ccc(Cl)cc2)nn1C(=O)c1ccccc1Cl	< 5.07	> 8.5 µM
CC(=O)c1sc2sc(C#N)c(C)c2c1C	< 4.85	> 14 µM
CCOC(=O)c1sc(SC)c2c1CC(c1ccccc1)CC2=O (stereo not given)	< 5.02	> 9.52 µM

SMILES	pIC50	IC90
COC(=O)c1scc(S(=O)(=O)c2ccc(Cl)cc2)c1C	< 5.00	> 9.98 µM
Clc1ccc(Sc2ncnc3sccc23)cc1	< 4.93	> 11.8 µM
COC(=O)c1cc(OC)c(OC)cc1NC(=O)c1ccccc1Br	< 5.08	> 8.37 µM
CC(C)(C)CN=C(C#N)C(C#N)/N=C/c1cccc(Cl)c1 (stereo not given)	< 4.96	> 11 µM
OC(C#CC(O)(c1ccccc1)c1ccccc1)(c1ccccc1)c1ccccc1	< 5.07	> 8.45 µM
C=S(=O)(NC(=O)c1ccc(-c2cc(C(F)(F)F)nn2C)s1)c1ccc(C)cc1 (stereo not given)	< 5.11	> 7.72 µM
O=[N+]([O-])c1cccc(-c2csc(CS(=O)(=O)c3cccs3)n2)c1	< 5.05	> 9.01 µM
CCOC(=O)c1sc2sc(C(C)=O)c(C)c2c1C	< 4.93	> 11.7 µM
CC1(C)CN=C(N(C(=O)Nc2ccc(Cl)c(Cl)c2)c2ccccc2)S1	< 5.08	> 8.37 µM
O=C(Nc1cc(C(F)(F)F)cc(C(F)(F)F)c1)c1cnn(-c2ccccc2)c1C(F)(F)F	< 5.15	> 7.06 µM
CC1(C)CC(=O)C=C(Sc2nc3cc(Cl)ccc3s2)C1	< 4.99	> 10.2 µM
C=C(C)c1ccccc(=O)c1O	< 4.69	> 20.3 µM
CN(C)c1ccc(/C=N/NC(=O)c2ccccc2N)c(Cl)c1	< 4.98	> 10.4 µM
Cc1c(OCc2ccc([N+](=O)[O-])cc2)ccc2c1OC(C)(C)C=C2	6.18	6.1 µM
COC(=O)c1cc(OC)c(OC)cc1NS(=O)(=O)c1ccc(Cl)cc1	5.55	2.91 µM
CSc1nc(N/C=C2/C(=O)c3ccccc3N(C)S2(=O)=O)nc(N(C)C)n1	< 5.09	> 8.12 µM
O=c1cc(-c2ccccc2)[nH]c2cc(-c3cccs3)nn12	5.06	> 11.2 µM
CSc1nc(=NC(=O)NS(=O)(=O)Oc2ccc(Cl)cc2Cl)n2nc(C3CC3)cc2[nH]1	< 5.17	> 6.74 µM
Cc1ncc(S(=O)(=O)Cc2ccco2)c(N)n1	< 4.89	> 13 µM
COC(=O)c1sc(SC)c2c1CC(C)(C)C/C2=N\O	< 4.96	> 11 µM
Cc1ccc(NC(=S)NCc2ccccn2)cc1C	< 4.91	> 12.2 µM
CCOC(=O)c1sc(S(=O)(=O)Cc2ccccc2)c2c1CC(C)(C)CC2=O	< 5.09	> 8.12 µM

SMILES	pIC50	IC90
CSc1sc(C(=O)Nc2cc(C(F)(F)F)cc(C(F)(F)F)c2)c(-c2ccc(Cl)cc2)c1C#N	6.08	2.43 µM
Fc1ccc(Nc2n[nH]c(=S)s2)cc1	< 4.84	> 14.5 µM
CNC(=O)c1ccc(-c2cc(C(F)(F)F)n(C)n2)s1	< 4.94	> 11.4 µM
O=C(c1ccc(Sc2ccccc2)c([N+](=O)[O-])c1)N(Cc1ccc2c(c1)OCO2)c1ccc(F)cc1	< 5.18	> 6.57 µM
CCCc1c(C(=O)ONC(=N)c2ccc(C(C)(C)C)cc2)cnn1-c1ccccc1	< 5.09	> 8.16 µM
COc1ccc(S(=O)(=O)Nc2ccccc2Sc2ncnc3scc(C)c23)cc1	< 5.13	> 7.44 µM
CCOC(=O)c1sc(SCc2ccccc2)c(S(=O)(=O)C(C)C)c1N	< 5.08	> 8.26 µM
O=C(Nc1ccc(F)cc1)Nc1cnn(-c2ccc([N+](=O)[O-])cc2)c1C(F)(F)F	5.53	> 8.06 µM
Cc1nn(C)c2ncc(C(=O)Nc3ccc(F)c(Cl)c3)c(SC(C)C)c12	< 5.08	> 8.4 µM
N#C/C(=N\Nc1ccc(OC(F)(F)F)cc1)S(=O)(=O)c1ccccn1	< 5.05	> 8.91 µM
COc1ccc(C(OC[C@H]2O[C@@H](n3cnc4c(N)ncnc43)CC2O)(c2ccccc2)c2ccc(OC)cc2)cc1 (stereo not given in full)	< 5.22	> 5.96 µM
O=C(O)C1CSC(c2ccccc2)N1 (stereo not given)	< 4.80	> 15.8 µM
COc1ccc(C2c3ccc4ccccc4c3OC(=N)C2C#N)cc1 (stereo not given)	< 5.00	> 10 µM
COC(=O)c1sccc1Oc1ccc(C(F)(F)F)cc1NC(=O)Nc1c(Cl)cc(Cl)cc1Cl	< 5.21	> 6.11 µM
Cc1csc2sc(C(=O)N3CCOCC3)c(C)c12	< 4.93	> 11.7 µM
N#CC1C(=N)Oc2c(ccc3ccccc23)C1c1ccc(Cl)cc1 (stereo not given)	< 5.00	> 9.92 µM
CNC(=O)c1sc2scc(C)c2c1C	< 4.84	> 14.6 µM
COC(=O)c1scc(S(=O)(=O)Cc2ccco2)c1N/N=C(\C#N)S(=O)(=O)C(C)C	< 5.14	> 7.18 µM
CC(C)CC(NC(=O)Cc1ccsc1)C(=O)N/N=C/c1cccs1 (stereo not given)	< 5.04	> 9.08 µM
Cc1c(OCc2ccc(Br)cc2)ccc2c1OC(C)(C)C=C2	6.70	0.652 µM
N#C/C(=C\Nc1cccc([N+](=O)[O-])c1)S(=O)(=O)c1ccc(Cl)cc1	< 5.04	> 9.07 µM

Reference: ChEMBL document CHEMBL4483862, “Open-source discovery of chemical leads for next-generation chemoprotective antimalarials” (2018)
